Assay results reported in paper PMC5557681 (Journal of veterinary cardiology : the official journal of …, 2017).
Structures can show the parent of a compound that is named as a salt. Where two headings read alike, the source gives them in different places. Blank lines part the entries; values can stand above or below the molecule they belong to.

What was measured:
[1] = in vivo, po
[2] = Analyte stability during storage in citrate or EDTA treated feline plasma; format: physicochemical; details: for Time stable at room temperature: EDTA treated feline plasma; for Deviation from nominal concentration (%): EDTA treated plasma, spike CAM-D 100, clopidogrel 38.3, acid 500 ng/mL; for Time stable at −80°C: citrate treated feline plasma; for Time stable at room temperature (abstract) / Time stable at −80°C (abstract): feline plasma
[3] = humans; cited from earlier work
[4] = test system: feline cardiogenic thromboembolism; details: cats; cited from earlier work
[5] = cited from earlier work
in vivo = details: po, 18.75 mg
[6] = test system: ADP-induced platelet aggregation; details: cited from earlier work

- AUC that was extrapolated [1]: 15–20%
- Cmax and AUC values compared with clopidogrel and CAM-D ([1]; 18.75 mg): over 100 fold
- Cmax values (range of both cats) ([1]; 18.75 mg): 2,900–3,300 ng/mL
- Elimination half-life compared with clopidogrel and CAM-D ([1]; 18.75 mg): about 2 times
- Time post administration at which Cmax was reached (both cats) ([1]; 18.75 mg): 1.5 to 2 h
- Time stable at room temperature [2]: at least 1 week
- Deviation from nominal concentration (%) ([2]; 4°C, 6 h): −6%
- Deviation from nominal concentration (%) ([2]; RT, 1 wk): −1%
- Deviation from nominal concentration (%) ([2]; RT, 24 h): −2%
- Deviation from nominal concentration (%) ([2]; RT, 48 h): −10%
- Deviation from nominal concentration (%) ([2]; RT, 72 h): 1%
- Time stable at −80°C [2]: at least 9 months
- Time stable at room temperature (abstract) [2]: 1 week
- Time stable at −80°C (abstract) [2]: 9 months
Structure (SMILES): O=C(O)[C@H](c1ccccc1Cl)N1CCc2sccc2C1 [Clopidogrel carboxylic acid, clopidogrel carboxylic acid]

- AUC that was extrapolated ([1]; cat): < 2%
- AUClast (0 to 24hrs) ([1]; 18.75 mg): 225 ng·h/mL
- Cmax ([1]; 18.75 mg): 144 ng/mL
- t1/2 (elimination half-life) ([1]; 18.75 mg): 5.2 h
- Time stable at room temperature [2]: at least 1 week
- Deviation from nominal concentration (%) ([2]; 4°C, 6 h): −7%
- Deviation from nominal concentration (%) ([2]; RT, 1 wk): 6%
- Deviation from nominal concentration (%) ([2]; RT, 24 h): −2%
- Deviation from nominal concentration (%) ([2]; RT, 48 h): −5%
- Deviation from nominal concentration (%) ([2]; RT, 72 h): −1%
- Time stable at −80°C [2]: at least 9 months
- Time stable at room temperature (abstract) [2]: 1 week
- Time stable at −80°C (abstract) [2]: 9 months
- AUC(0-t) (in vivo; AUClast (0 to 24hrs)): 374 ng·h/mL
- Cmax (in vivo; Cmax): 134 ng/mL
- half-life (in vivo; t1/2 (elimination half-life)): 5.4 h
Structure (SMILES): COC(=O)[C@H](c1ccccc1Cl)N1CCc2sccc2C1 [Clopidogrel, S-(+)-clopidogrel hydrogen sulfate, reference compound]
- Proportion metabolized in the liver to inactive clopidogrel carboxylic acid [3]: 85%
- Prevention of feline cardiogenic thromboembolism [4]: superior to aspirin
- Cmax in humans ([5]; healthy humans / people): 20 ng/mL
- Tmax in people ([5]; post administration): around 1 hour

Structure (SMILES): COC(=O)C(c1ccccc1Cl)N1CCC(S)C(=CC(=O)O)C1 (stereo not shown) [H4]
- Antiplatelet activity relative to H2 [6]: about twice the activity of H2

Structure (SMILES): COC(=O)C(c1ccccc1Cl)N1CCC2SC(=O)C=C2C1.Cl (stereo not shown) [2-oxo-clopidogrel, 2-oxo-clopidogrel hydrochloride]
- Stability in feline plasma (in words) ([2]; all storage temperatures tested, EDTA and citrate treated plasma): unstable
- Decrease from nominal concentration within 6 hours ([2]; all storage temperatures tested, EDTA treated and citrate treated plasma, data not shown): > 25%
